Experimental data taken from publication PMC11911254 (Pharmacological Reports, 2025).
Where “and” joins values, the source holds several entries; their conditions need not be identical. Equal values may be shown once.

Test: Concentration of paracetamol and its metabolites in plasma, CSF and brain cortex by LC-MS/MS
Procedure: Drug injection protocol is illustrated in Fig. 1.
Male and female postnatal P4 pups and 7–8 week-old non-pregnant females were used. […] In combination therapy experiments, this dose was accompanied by one of the 7 other drugs (Table 1). For all experiments, animals were terminally anesthetized 30 min after the drug injection using inhaled isoflurane (IsoFlo 100% w/w, Abbott Laboratories), and blood, CSF, and brain samples were collected. Blood was collected directly from the right cardiac ventricle, CSF from the cisterna magna, and cortical brain samples from the frontal/parietal lobes dorsal to the lateral ventricles as described previously.
Pregnant E19 dams were anesthetized with ip urethane injection (25% w/v urethane, Sigma, 1 ml/100 g body weight) and placed on a 39 °C heating pad in the supine position. An endotracheal catheter was inserted to maintain a clear airway. Catheters were inserted into the femoral vein and artery for iv drug administration and arterial blood sampling respectively. The cannula was flushed with 0.5 ml of heparinized saline (Hospira Inc, 5,000 units/ml) after drug administration and following each arterial blood sample. Following drug administration to the dams, fetuses were exteriorized and serially collected starting at 30 min post-maternal injection. […] At collection, the viability of each fetus was assessed (presence of a heartbeat, the colour of the umbilical vessels) and blood, CSF, and brain samples were taken along with a time-matched maternal blood sample from the femoral artery. At the end of the experiment, a final maternal blood sample was taken directly from the left cardiac ventricle, and CSF and brain samples were collected.
This method has been described previously for valproate, lamotrigine, and olanzapine and was applied in the present study. Simultaneous quantification was performed for all compounds in plasma, brain, and CSF samples following the addition of respective stable isotope-labeled internal standards.
Linear response range was determined in untreated control rat plasma for each compound at 0.1, 1, 10, 50, 100, 200, 400, and 800 µg/ml.

[1] = E19 rats, maternal iv paracetamol 15 mg/kg + cimetidine 11 mg/kg (PARA+CIM, n=10), median (IQR)
[2] = E19 rats, maternal iv paracetamol 15 mg/kg + digoxin 0.03 mg/kg (PARA+DIG, n=9), median (IQR)
[3] = E19 rats, maternal iv paracetamol 15 mg/kg + lamotrigine 6 mg/kg (PARA+LTG, n=10), median (IQR)
[4] = E19 rats, maternal iv paracetamol 15 mg/kg + olanzapine 0.15 mg/kg (PARA+OLZ, n=10), median (IQR), all values if <3 detected
[5] = E19 rats, maternal iv paracetamol 15 mg/kg + valproate 30 mg/kg (PARA+VPA, n=10), median (IQR)
[6] = E19 rats, maternal iv paracetamol 15 mg/kg + valproate 30 mg/kg (PARA+VPA, n=10), median (IQR), all values if <3 detected
[7] = E19 rats, maternal iv paracetamol 15 mg/kg monotherapy (PARA, n=10), median (IQR)
[8] = P4 rats, 30 min after ip paracetamol 15 mg/kg + cimetidine 11 mg/kg (PARA+CIM, n=4), median (IQR)
[9] = P4 rats, 30 min after ip paracetamol 15 mg/kg + digoxin 0.03 mg/kg (PARA+DIG, n=4), median (IQR)
[10] = P4 rats, 30 min after ip paracetamol 15 mg/kg + fluvoxamine 1.5 mg/kg (PARA+FLX, n=4), median (IQR)
[11] = P4 rats, 30 min after ip paracetamol 15 mg/kg + fluvoxamine 1.5 mg/kg (PARA+FLX, n=4), median (IQR) or individual values
[12] = P4 rats, 30 min after ip paracetamol 15 mg/kg + lithium 3.2 mg/kg (PARA+Li, n=4), median (IQR)
[13] = P4 rats, 30 min after ip paracetamol 15 mg/kg + olanzapine 0.15 mg/kg (PARA+OLZ, n=4), median (IQR)
[14] = P4 rats, 30 min after ip paracetamol 15 mg/kg monotherapy (PARA, n=4), median (IQR)
[15] = non-pregnant adult rats, 30 min after ip paracetamol 15 mg/kg + fluvoxamine 1.5 mg/kg (PARA+FLX, n=4), median (IQR)
[16] = non-pregnant adult rats, 30 min after ip paracetamol 15 mg/kg + fluvoxamine 1.5 mg/kg (PARA+FLX, n=4), median (IQR), individual values if <3 samples
[17] = non-pregnant adult rats, 30 min after ip paracetamol 15 mg/kg + olanzapine 0.15 mg/kg (PARA+OLZ, n=4), median (IQR)
[18] = non-pregnant adult rats, 30 min after ip paracetamol 15 mg/kg monotherapy (PARA, n=6), median (IQR)
[19] = P4 rats, 30 min after ip paracetamol 15 mg/kg + lamotrigine 6 mg/kg (PARA+LTG, n=5), median (IQR)
[20] = P4 rats, 30 min after ip paracetamol 15 mg/kg + valproate 30 mg/kg (PARA+VPA, n=4), median (IQR) or individual values
[21] = non-pregnant adult rats, 30 min after ip paracetamol 15 mg/kg + digoxin 0.03 mg/kg (PARA+DIG, n=3), median (IQR)
[22] = non-pregnant adult rats, 30 min after ip paracetamol 15 mg/kg + lamotrigine 6 mg/kg (PARA+LTG, n=3), median (IQR), individual values if <3 samples

With `CC(=O)Nc1ccc(O[C@@H]2O[C@H](C(=O)O)[C@@H](O)[C@H](O)[C@H]2O)cc1` [Paracetamol-Glucuronide, paracetamol-glucuronide] the “Concentration in CSF” value [1] was “N.D. (N.D. (not detected) are values <0.01μg/ml)”, the Concentration in brain [1] was “N.D. (N.D. (not detected) are values <0.01μg/ml)” and the “Concentration in CSF” value [2] was 0.2 µg/mL. The Concentration in brain [2] was 0.5 µg/mL, the “Concentration in CSF” value [3] was “N.D. (N.D. (not detected) are values <0.01μg/ml)” and the Concentration in brain [3] was “N.D. (N.D. (not detected) are values <0.01μg/ml)”. For the same compound, the Concentration in brain [4] was 0.7 µg/mL, the “Concentration in CSF” value [5] was “N.D. (N.D. (not detected) are values <0.01μg/ml)” and the Concentration in brain [6] was “N.D. (N.D. (not detected) are values <0.01μg/ml)”. For the same compound, the “Concentration in CSF” value [7] was “N.D. (N.D. (not detected) are values <0.01μg/ml)”, the Concentration in brain [7] was “N.D. (N.D. (not detected) are values <0.01μg/ml)” and the “Concentration in CSF” value [8] was 0.2 (0.04) µg/ml. For the same compound, the “Concentration in CSF” value [9] was 0.1 (0.03) µg/ml, the Concentration in brain [9] was 0.1 µg/mL and the “Concentration in CSF” value [10] was 0.2 (2) µg/ml. The Concentration in brain [11] was 0.1 µg/mL, the “Concentration in CSF” value [12] was 0.1 (0.05) µg/ml and the Concentration in brain [12] was 0.2 µg/mL. The “Concentration in CSF” value [13] was 0.5 µg/mL, the “Concentration in CSF” value [14] was 0.2 (0.1) µg/ml and the “Concentration in CSF” value [15] was 0.05 (0.04) µg/ml. For the same compound, the Concentration in brain [16] was 0.2 µg/mL and 1 µg/mL, the “Concentration in CSF” value [17] was 0.1 µg/mL and the Concentration in brain [17] was 0.1 µg/mL. The Concentration in brain [18] was 2.0 µg/mL and the “change in plasma concentration following combination therapy” value (rat, in vivo) was “no significant changes”.

In the case of `CC(=O)Nc1ccc(OS(=O)(=O)O)cc1` [Paracetamol-Sulfate, paracetamol-sulfate], the “Concentration in CSF” value [1] is reported as 0.06 (0.04) µg/ml, the Concentration in brain [1] is reported as 0.02 (0.02) µg/ml and the “Concentration in CSF” value [2] is reported as 0.05 (0.04) µg/ml. The Concentration in brain [2] was 0.01 (0.01) µg/ml, the Concentration in plasma [2] was 0.9 (0.4) µg/ml and the Concentration in plasma (E19 rats, maternal iv paracetamol 15 mg/kg + digoxin 0.03 mg/kg (PARA+DIG, n=9), median (IQR), listed as paracetamol-sulfate) was 0.9 µg/mL. The “Concentration in CSF” value [3] was 0.08 (0.05) µg/ml, the Concentration in brain [3] was 0.02 (0.02) µg/ml and the Concentration in plasma [3] was 1.1 (0.4) µg/ml. The Concentration in plasma (E19 rats, maternal iv paracetamol 15 mg/kg + olanzapine 0.15 mg/kg (PARA+OLZ, n=10), median (IQR)) was 1.4 (0.5) µg/ml, the “Concentration in CSF” value [4] was 0.09 (0.06) µg/ml and the Concentration in brain [4] was 0.05 (0.03) µg/ml. For the same compound, the “Concentration in CSF” value [5] was 0.06 (0.03) µg/ml, the Concentration in plasma [6] was 0.9 (0.3) µg/ml and the Concentration in plasma (E19 rats, maternal iv paracetamol 15 mg/kg + valproate 30 mg/kg (PARA+VPA, n=10), median (IQR), all values if <3 detected, listed as paracetamol-sulfate) was 0.9 µg/mL. For the same compound, the “Concentration in CSF” value [7] was 0.09 (0.05) µg/ml, the Concentration in brain [7] was 0.04 (0.03) µg/ml and the Concentration in plasma [7] was 1.5 (0.4) µg/ml. For the same compound, the Concentration in plasma (E19 rats, maternal iv paracetamol 15 mg/kg monotherapy (PARA, n=10), median (IQR), listed as paracetamol-sulfate) was 1.5 µg/mL, the Concentration in plasma (P4, monotherapy and combination therapy with any of the drugs investigated) was “around 5 µg/ml” and the “Concentration in CSF” value [8] was 0.1 (0.02) µg/ml. For the same compound, the Concentration in brain [8] was 0.06 (0.02) µg/ml, the Concentration in plasma [8] was 7.5 (1.7) µg/ml and the “Concentration in CSF” value [9] was 0.1 (0.02) µg/ml. For the same compound, the Concentration in brain [9] was 0.07 (0.04) µg/ml, the Concentration in plasma [9] was 7.6 (3.3) µg/ml and the “Concentration in CSF” value [10] was 0.1 (1.6) µg/ml. The Concentration in plasma [10] was 5.7 (1.4) µg/ml, the Concentration in brain [11] was 0.04 µg/mL and 0.05 µg/mL and the “Concentration in CSF” value [19] was 0.07 (0.02) µg/ml. The Concentration in brain [19] was 0.06 (0.02) µg/ml, the Concentration in plasma [19] was 3.8 (0.9) µg/ml and the “Concentration in CSF” value [12] was 0.1 (0.04) µg/ml. For the same compound, the Concentration in brain [12] was 0.08 (0.01) µg/ml, the Concentration in plasma [12] was 7.2 (1.2) µg/ml and the “Concentration in CSF” value [13] was 0.05 ± 0.02 µg/mL. The Concentration in brain [13] was 0.02 µg/mL, the Concentration in plasma [13] was 2.7 (1.0) µg/ml and the “Concentration in CSF” value (P4 rats, 30 min after ip paracetamol 15 mg/kg + valproate 30 mg/kg (PARA+VPA, n=4), median (IQR)) was 0.06 (0.01) µg/ml. The Concentration in brain [20] was 0.05 µg/mL, the Concentration in plasma [20] was 4.1 (2.1) µg/ml and the “Concentration in CSF” value [14] was 0.09 (0.05) µg/ml. For the same compound, the Concentration in brain [14] was 0.09 (0.03) µg/ml, the Concentration in plasma [14] was 3.1 (1.8) µg/ml and the “change in plasma concentration following combination therapy” value (adults, any of the drugs investigated, Kruskal-Wallis test) was “no significant changes”. For the same compound, the Concentration in brain (non-pregnant adult rats, 30 min after ip paracetamol 15 mg/kg + cimetidine 11 mg/kg (PARA+CIM, n=3), median (IQR)) was 0.2 µg/mL, the Concentration in plasma (non-pregnant adult rats, 30 min after ip paracetamol 15 mg/kg + cimetidine 11 mg/kg (PARA+CIM, n=3), median (IQR), individual values if <3 samples) was 5.5 (1.4) µg/ml and the “Concentration in CSF” value [21] was 0.02 µg/mL. For the same compound, the Concentration in plasma [21] was 7.2 (2.2) µg/ml, the Concentration in brain (non-pregnant adult rats, 30 min after ip paracetamol 15 mg/kg + digoxin 0.03 mg/kg (PARA+DIG, n=3), median (IQR), individual values if <3 samples) was 0.02 µg/mL and the “Concentration in CSF” value [15] was 0.07 (0.03) µg/ml. The Concentration in plasma [15] was 12.9 (1.0) µg/ml, the Concentration in brain [16] was 0.1 (0.4) µg/ml and the “Concentration in CSF” value [22] was 0.02 µg/mL and 0.04 µg/mL. The Concentration in brain [22] was 0.1 µg/mL, the Concentration in plasma [22] was 11.5 (0.7) µg/ml and the Concentration in brain [17] was 0.2 (0.2) µg/ml. The Concentration in plasma [17] was 14.8 (2.7) µg/ml, the Concentration in brain (non-pregnant adult rats, 30 min after ip paracetamol 15 mg/kg + valproate 30 mg/kg (PARA+VPA, n=3), median (IQR)) was 0.1 µg/mL and the Concentration in plasma (non-pregnant adult rats, 30 min after ip paracetamol 15 mg/kg + valproate 30 mg/kg (PARA+VPA, n=3), median (IQR), individual values if <3 samples) was 12.1 (0.4) µg/ml. For the same compound, the “Concentration in CSF” value [18] was 0.02 (0.01) µg/ml, the Concentration in brain [18] was 0.1 (0.1) µg/ml and the Concentration in plasma [18] was 8.8 (5.8) µg/ml.
